Reference: US9789096B2, “Methods and compositions for selective and targeted cancer therapy” (Board of Regents of the University of Texas System, priority 2013, dated 2017)

What was measured:
H2122 = assay: Cell viability dose-response, H2122; assay type: cell-based, human; conditions: text b138; read-out: IC50 towards H2122 cells
Procedure, shortened: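 Cells plated at 15% confluence in RPMI-1640 with 5% FBS and 2 mM L-glutamine, treated with compound in a 12-point, 3-fold dilution series from 50 micromolar, in duplicate. ATP measured by Cell Titer Glo after 4 days; IC50 taken from the dose-response curve.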

SCD1 [1] = target: T1, SCD1 (Mus musculus, UniProt P13516); assay: Tritium release assay of SCD1 activity, mouse liver; assay type: biochemical; conditions: liver expresses CYP4F11
T1 construct: tissue derived from mouse liver and preputial gland was independently exposed; from tissue; host or cells: mouse liver
From the text: (§1) FIGS. 10A-10F. Sensitive cells express high levels of CYP4 family members. FIG. 10A. relative expression levels of mRNA for a panel of cytochrome P450 enzymes from the cancer cell line encyclopedia (CCLE, http://www.broadinstitute.org/ccle) showing CYP4F11 in particular is highly expressed in 4 NSCLC lines that are sensitive to SCD1 inhibition. FIG. 10B. Western blot showing that CYP4F11 protein is expressed in all sensitive cell lines but not in the majority of insensitive cell lines. FIG. 10C. […] FIG. 10D. Cells were incubated with either a methoxy-containing oxalamide, which represents the pro-drug form, or the hydroxy containing oxalamide, which represents the active form of the drug. […] FIG. 10E. 293t cells were transfected with mammalian expression plasmids containing SCD1 or CYP4F11 as indicated. Cells were treated with either SW208108 or its demethylated congener, SW211666, and conjugated with a fluorescent dye as described in FIG. 7. Cells containing CYP4F11 form covalent adducts with both the pro-drug (methoxy) and drug form (demethylated, i.e. OH). […] FIG. 10F. Shown are the results of a tritium release assay in which tritiated water is produced from tritiated stearoyl CoA by the action of SCD1. […] By contrast, SW211666 but not SW208108 inhibits SCD1 in mouse preputial gland, which lacks CYP4F11 (bottom). […]

SCD1 [2] = target: T1, SCD1; assay: Tritium release assay of SCD1 activity, mouse preputial gland; assay type: biochemical; conditions: preputial gland lacks CYP4F11
From the text: as §1

4 sensitive cell lines = assay: Rescue of toxicity by sodium oleate in 4 sensitive lines; assay type: cell-based, human; conditions: 100 μM sodium oleate
From the text: FIGS. 8D-8E. Sodium oleate rescues the toxicity of SCD1 inhibitors.
Consistent with this interpretation, the toxicity of SW208108 against 4 sensitive cell lines was fully rescued by adding sodium oleic acid to the culture media (FIG. 8D). Moreover, a commercially available SCD1 inhibitor (Cayman chemicals), originally described by Liu et al (compound 28c in the Journal of Medicinal Chemistry, 2007, 50, 3086-3100) was likewise toxic to the same 4 non-small cell lung cancer cell lines (FIG. 8E).

SCD1 [3] = target: T2, SCD1 (Homo sapiens, UniProt O00767); assay: Cross-linking of SW208108 in 12 NSCLC cell lines; assay type: cell-based
T2 sequence (O00767 1-359): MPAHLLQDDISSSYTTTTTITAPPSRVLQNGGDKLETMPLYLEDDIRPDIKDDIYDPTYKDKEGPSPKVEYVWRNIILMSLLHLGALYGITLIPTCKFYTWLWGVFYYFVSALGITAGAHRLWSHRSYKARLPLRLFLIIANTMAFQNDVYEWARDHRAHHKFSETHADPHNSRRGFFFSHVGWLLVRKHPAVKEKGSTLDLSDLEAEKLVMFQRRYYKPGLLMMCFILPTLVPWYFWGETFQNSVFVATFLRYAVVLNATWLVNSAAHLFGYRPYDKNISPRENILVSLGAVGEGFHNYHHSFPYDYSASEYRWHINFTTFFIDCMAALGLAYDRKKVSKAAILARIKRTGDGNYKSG
Experimental: FIGS. 9A-9D. Selective toxins selectively cross-link to SCD1 in sensitive cells and are selectively metabolized in sensitive cells. FIG. 9A. 12 NSCLC cell lines were incubated with SW208108 and processed as described in FIG. 7. […] FIG. 9B. […] FIG. 9C. […] Demethylation is the anticipated mode of metabolism. FIG. 9D. A representative benzothiazole is demethylated by sensitive cell lines. […] Values in FIGS. 9C and 9D were obtained by tandem HPLC/MS/MS.
In this context, 12 different NSCLC cell lines were treated with SW208108, lysed and clicked to a dye as previously described. […] To understand how SW208108 could selectively cross-link to SCD1 within some cell lines that expressed the enzyme but not other cell lines that expressed the same enzyme, we investigated the stability of a representative oxalamide in the presence of a sensitive and insensitive cell line. […] Similarly, a representative benzothiazole was metabolized by H2122 cells through, at least in part, the loss of the O-methyl group (FIG. 9D).

SCD1 [4] = target: T2, SCD1; assay: Covalent adduct formation in 293t cells transfected with SCD1 or CYP4F11; assay type: cell-based; set-up: expressed in transfected cells; host or cells: 293t cells
From the text: as §1

T1 sequence (P13516 whole entry): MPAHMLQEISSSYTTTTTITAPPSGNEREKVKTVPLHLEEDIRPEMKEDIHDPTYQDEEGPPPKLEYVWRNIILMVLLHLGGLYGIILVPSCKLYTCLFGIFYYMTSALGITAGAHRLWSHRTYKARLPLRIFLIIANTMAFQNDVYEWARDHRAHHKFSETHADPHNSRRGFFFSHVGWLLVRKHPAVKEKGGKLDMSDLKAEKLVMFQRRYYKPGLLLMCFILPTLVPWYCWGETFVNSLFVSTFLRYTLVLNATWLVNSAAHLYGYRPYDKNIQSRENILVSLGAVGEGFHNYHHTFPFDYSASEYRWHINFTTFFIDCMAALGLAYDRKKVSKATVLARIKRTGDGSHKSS

Q: `C#CCOc1ccc(C(=O)c2ccc(NC(=O)C(=O)NCCc3ccc(OC)cc3)cc2)cc1` [SW208108] was tested. Which IC50 (H2122) did it give?
A: The IC50 was 30 nM.

Q: What about the “inhibition of SCD1 activity in mouse liver tissue” value (SCD1 [1]) of the same molecule?
A: The value was “only inhibited SCD1 activity in the liver”.

Q: And the “inhibition of SCD1 activity in mouse preputial gland tissue” value (SCD1 [2])?
A: The value was “not in the preputial gland”.

Q: What about the “toxicity against 4 sensitive cell lines with sodium oleic acid” value (4 sensitive cell lines) of the same molecule?
A: Its value is “fully rescued”.

Q: What about the “cross linked SCD1 bands in 12 NSCLC cell lines” value (SCD1 [3]) of the same molecule?
A: The value was “Prominent cross linked bands”.

Q: What about the “covalent modification of SCD1 in 293t cells in the absence of CYP4F11” value (SCD1 [4]; SCD1 expressed alone) of the same molecule?
A: Its value is “unable to covalently modify SCD1”.

Q: What about the “covalent modification of SCD1 in 293t cells expressing SCD1 and CYP4F11” value (SCD1 [4]; with or without HET0016) of the same molecule?
A: Its value is “covalently modify SCD1”.
